pIC50: −log10 of the molar value.
Tests used:
A549 = assay: cells; type: functional, cell-based; settings: Homo sapiens, A549, 72 h;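 note: antiproliferative effect read out as loss of cell viability by MTT assay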
A-431 = assay: cells; type: functional, cell-based; settings: Homo sapiens, A-431, 72 h
Description: Antiproliferative activity against human A-431 cells assessed as reduction in cell viability incubated for 72 hrs by MTT assay

NCI-H1975 = assay: Antiproliferative activity against human NCI-H1975 cells assessed as reduction in cell viability incubated for 72 hrs by MTT assay; type: functional, cell-based; settings: NCI-H1975, 72 h
[1] = target: Epidermal growth factor receptor (Homo sapiens, UniProt P00533)
Chain of Epidermal growth factor receptor (Homo sapiens, UniProt P00533) (P00533 whole entry): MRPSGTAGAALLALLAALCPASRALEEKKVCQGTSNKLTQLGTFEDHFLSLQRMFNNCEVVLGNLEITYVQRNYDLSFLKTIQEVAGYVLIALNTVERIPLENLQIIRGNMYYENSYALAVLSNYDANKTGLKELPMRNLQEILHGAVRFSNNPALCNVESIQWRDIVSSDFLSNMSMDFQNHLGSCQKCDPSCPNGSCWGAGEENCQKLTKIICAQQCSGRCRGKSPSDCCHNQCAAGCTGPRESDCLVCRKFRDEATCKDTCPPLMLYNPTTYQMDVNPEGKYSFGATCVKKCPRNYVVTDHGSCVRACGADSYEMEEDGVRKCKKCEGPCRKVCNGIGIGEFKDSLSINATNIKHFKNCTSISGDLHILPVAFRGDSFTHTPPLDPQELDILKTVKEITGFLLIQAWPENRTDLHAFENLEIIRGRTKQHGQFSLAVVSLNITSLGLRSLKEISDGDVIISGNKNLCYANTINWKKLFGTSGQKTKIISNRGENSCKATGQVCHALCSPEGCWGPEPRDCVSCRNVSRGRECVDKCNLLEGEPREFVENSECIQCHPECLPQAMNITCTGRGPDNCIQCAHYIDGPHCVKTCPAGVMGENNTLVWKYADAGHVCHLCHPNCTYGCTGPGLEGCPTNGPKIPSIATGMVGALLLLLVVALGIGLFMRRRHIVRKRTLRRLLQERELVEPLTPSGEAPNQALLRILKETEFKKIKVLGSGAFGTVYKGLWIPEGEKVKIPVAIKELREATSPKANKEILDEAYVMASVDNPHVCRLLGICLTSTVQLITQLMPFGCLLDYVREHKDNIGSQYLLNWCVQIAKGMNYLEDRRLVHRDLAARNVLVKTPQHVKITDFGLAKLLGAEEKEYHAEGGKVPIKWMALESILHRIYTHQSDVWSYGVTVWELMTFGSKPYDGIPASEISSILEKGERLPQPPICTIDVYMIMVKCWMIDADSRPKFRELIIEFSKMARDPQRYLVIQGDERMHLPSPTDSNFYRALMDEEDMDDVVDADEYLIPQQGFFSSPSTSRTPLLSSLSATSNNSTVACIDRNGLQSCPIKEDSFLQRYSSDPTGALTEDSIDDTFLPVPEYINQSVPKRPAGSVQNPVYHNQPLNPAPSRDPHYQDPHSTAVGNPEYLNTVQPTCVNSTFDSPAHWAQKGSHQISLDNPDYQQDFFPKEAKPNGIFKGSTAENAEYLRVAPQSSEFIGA
Description: Inhibition of recombinant human N-terminal GST-tagged EGFR (669 to 1210 residues) expressed in baculovirus expression system using peptide as substrate incubated for 2 hrs followed by substrate addition and measured after 30 mins by TR-FRET assay

[2] = target: Epidermal growth factor receptor (Homo sapiens, UniProt P00533, T790M)
Chain of Epidermal growth factor receptor (Homo sapiens, UniProt P00533, T790M) (P00533 25-1210 T790M limits assumed): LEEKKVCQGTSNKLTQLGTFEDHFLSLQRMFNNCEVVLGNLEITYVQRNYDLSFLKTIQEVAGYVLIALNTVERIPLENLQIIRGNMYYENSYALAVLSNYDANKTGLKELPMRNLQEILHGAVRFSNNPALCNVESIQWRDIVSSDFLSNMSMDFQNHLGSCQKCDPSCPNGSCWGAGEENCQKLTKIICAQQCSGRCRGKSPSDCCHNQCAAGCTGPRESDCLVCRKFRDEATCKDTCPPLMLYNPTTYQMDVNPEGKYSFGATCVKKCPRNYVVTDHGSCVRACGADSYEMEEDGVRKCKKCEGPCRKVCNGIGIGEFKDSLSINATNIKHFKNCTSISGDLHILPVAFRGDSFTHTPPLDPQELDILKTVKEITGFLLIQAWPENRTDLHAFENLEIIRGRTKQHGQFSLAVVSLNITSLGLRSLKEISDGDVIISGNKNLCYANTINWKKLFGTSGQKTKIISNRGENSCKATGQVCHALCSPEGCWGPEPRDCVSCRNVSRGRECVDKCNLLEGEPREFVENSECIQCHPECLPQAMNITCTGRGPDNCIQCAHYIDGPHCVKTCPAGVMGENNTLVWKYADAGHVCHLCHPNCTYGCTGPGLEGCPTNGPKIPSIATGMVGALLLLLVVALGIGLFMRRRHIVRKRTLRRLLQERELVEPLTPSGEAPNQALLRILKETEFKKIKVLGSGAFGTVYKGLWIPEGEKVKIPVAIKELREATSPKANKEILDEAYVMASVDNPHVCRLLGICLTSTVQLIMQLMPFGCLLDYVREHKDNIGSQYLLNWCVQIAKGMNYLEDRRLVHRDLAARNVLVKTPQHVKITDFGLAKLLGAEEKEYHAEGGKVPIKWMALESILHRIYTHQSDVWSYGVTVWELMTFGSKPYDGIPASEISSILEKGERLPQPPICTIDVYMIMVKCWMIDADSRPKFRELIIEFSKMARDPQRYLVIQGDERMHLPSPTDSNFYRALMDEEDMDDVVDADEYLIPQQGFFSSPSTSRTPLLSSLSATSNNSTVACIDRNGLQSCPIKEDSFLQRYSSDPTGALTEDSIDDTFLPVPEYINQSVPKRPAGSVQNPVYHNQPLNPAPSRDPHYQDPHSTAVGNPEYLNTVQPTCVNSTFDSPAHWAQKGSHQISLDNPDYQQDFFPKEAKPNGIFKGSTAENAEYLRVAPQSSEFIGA

Carbonic anhydrase 2 = Carbonic anhydrase 2 (Homo sapiens, UniProt P00918); assay: Inhibition of human carbonic anhydrase 2 using p-nitrophenyl acetate as substrate by UV-VIS spectrophotometric analysis
Carbonic anhydrase 9 = Carbonic anhydrase 9 (Homo sapiens, UniProt Q16790)
Description: Inhibition of human carbonic anhydrase 9 using p-nitrophenyl acetate as substrate by UV-VIS spectrophotometric analysis

Compound | pIC50 (A549) | pIC50 (A-431) | pIC50 (NCI-H1975) | pIC50 [1] | pIC50 [2] | pIC50 (Carbonic anhydrase 2) | pIC50 (Carbonic anhydrase 9)
NS(=O)(=O)c1ccc(CCNC(=S)Nc2ccc3ncnc(Nc4ccc(OCc5cccc(F)c5)c(Cl)c4)c3c2)cc1 | 5.18 | 5.24 | 5.29 | 7.55 | 7.18 | – | –
COc1cc2ncnc(Nc3ccccc3)c2cc1OCCCCC(=O)Nc1ccc(S(N)(=O)=O)cc1 | < 4.40 | 4.60 | 4.85 | – | – | – | –
COc1cc2ncnc(Nc3ccc(F)c(Br)c3)c2cc1OCCCCC(=O)Nc1ccc(S(N)(=O)=O)cc1 | 4.80 | 5.10 | 4.50 | – | – | – | –
COc1ccccc1Nc1ncnc2cc(OC)c(OCCCCC(=O)Nc3ccc(S(N)(=O)=O)cc3)cc12 | 4.62 | 4.62 | 5.10 | – | – | – | –
NS(=O)(=O)c1ccc(NC(=S)Nc2ccc3ncnc(Nc4ccc(F)c(Cl)c4)c3c2)cc1 | < 4.40 | 4.42 | 4.80 | – | – | – | –
COc1cc2ncnc(Nc3cccc(F)c3)c2cc1OCCCCC(=O)Nc1ccc(S(N)(=O)=O)cc1 | < 4.40 | 4.52 | < 4.40 | – | – | – | –
COc1cc2ncnc(Nc3ccc(C)cc3)c2cc1OCCCCC(=O)Nc1ccc(S(N)(=O)=O)cc1 | < 4.40 | 4.45 | 4.72 | – | – | – | –
COc1cc2ncnc(Nc3ccc(F)cc3)c2cc1OCCCCC(=O)Nc1ccc(S(N)(=O)=O)cc1 | < 4.40 | 4.73 | < 4.40 | – | – | – | –
NS(=O)(=O)c1ccc(CCNC(=S)Nc2ccc3ncnc(Nc4cccc(C(F)(F)F)c4)c3c2)cc1 | 5.04 | 4.78 | 5.37 | 7.37 | 7.03 | 6.62 | 6.50
COc1cc2ncnc(Nc3ccc(F)c(Cl)c3)c2cc1OCCCCC(=O)Nc1ccc(S(N)(=O)=O)cc1 | 4.81 | 5.30 | 4.45 | 7.74 | 7.21 | – | –
COc1cc2ncnc(Nc3ccc(OC(F)(F)F)cc3)c2cc1OCCCCC(=O)Nc1ccc(S(N)(=O)=O)cc1 | < 4.40 | 4.65 | 5.06 | – | – | – | –
COc1cc2ncnc(Nc3ccc(C(F)(F)F)cc3)c2cc1OCCCCC(=O)Nc1ccc(S(N)(=O)=O)cc1 | 4.83 | 4.77 | 4.92 | – | – | – | –
COc1cc2ncnc(Nc3ccc(Br)cc3)c2cc1OCCCCC(=O)Nc1ccc(S(N)(=O)=O)cc1 | < 4.40 | 5.18 | 4.63 | – | – | – | –
COc1cc2ncnc(Nc3cc(F)c(F)c(F)c3)c2cc1OCCCCC(=O)Nc1ccc(S(N)(=O)=O)cc1 | < 4.40 | 4.63 | 4.70 | – | – | – | –
COc1ccc(Nc2ncnc3cc(OC)c(OCCCCC(=O)Nc4ccc(S(N)(=O)=O)cc4)cc23)cc1 | < 4.40 | 4.83 | 4.52 | – | – | – | –
COc1cc2ncnc(Nc3cccc(C)c3)c2cc1OCCCCC(=O)Nc1ccc(S(N)(=O)=O)cc1 | 4.80 | 5.13 | 4.49 | – | – | – | –

Compound | pIC50 (A549) | pIC50 (A-431) | pIC50 (NCI-H1975) | pIC50 [1] | pIC50 [2] | pIC50 (Carbonic anhydrase 2) | pIC50 (Carbonic anhydrase 9)
COc1cc2ncnc(Nc3ccc(Cl)cc3)c2cc1OCCCCC(=O)Nc1ccc(S(N)(=O)=O)cc1 | < 4.40 | 5.15 | 4.50 | – | – | – | –
COc1ccc(Nc2ncnc3cc(OC)c(OCCCCC(=O)Nc4ccc(S(N)(=O)=O)cc4)cc23)cc1OC | < 4.40 | 4.45 | 5.03 | – | – | – | –
C#Cc1cccc(Nc2ncnc3cc(OCCOC)c(OCCOC)cc23)c1 [ERLOTINIB] | 4.78 | 4.93 | 4.88 | – | – | – | –
NS(=O)(=O)c1ccc(NC(=S)Nc2ccc3ncnc(Nc4cccc(Cl)c4F)c3c2)cc1 | < 4.40 | 4.88 | 4.60 | – | – | – | –
NS(=O)(=O)c1ccc(NC(=S)Nc2ccc3ncnc(Nc4ccc(C(F)(F)F)cc4)c3c2)cc1 | < 4.40 | 4.75 | 4.77 | – | – | – | –
CCc1ccc(Nc2ncnc3cc(OC)c(OCCCCC(=O)Nc4ccc(S(N)(=O)=O)cc4)cc23)cc1 | 4.92 | 5.14 | 4.99 | – | – | – | –
NS(=O)(=O)c1ccc(NC(=S)Nc2ccc3ncnc(Nc4ccc(Cl)c(C(F)(F)F)c4)c3c2)cc1 | 5.35 | 4.74 | 4.93 | – | – | – | –
COc1cc2ncnc(Nc3cccc(Br)c3)c2cc1OCCCCC(=O)Nc1ccc(S(N)(=O)=O)cc1 | 4.83 | 5.01 | 4.94 | – | – | – | –
NS(=O)(=O)c1ccc(NC(=S)Nc2ccc3ncnc(Nc4ccc(F)c(Br)c4)c3c2)cc1 | < 4.40 | 4.74 | 5.00 | – | – | – | –
COc1cc2ncnc(Nc3cccc(Cl)c3)c2cc1OCCCCC(=O)Nc1ccc(S(N)(=O)=O)cc1 | 4.95 | 4.52 | 4.48 | – | – | – | –
COc1cc2ncnc(Nc3ccc(Cl)c(C(F)(F)F)c3)c2cc1OCCCCC(=O)Nc1ccc(S(N)(=O)=O)cc1 | 5.03 | 5.41 | 5.49 | 7.86 | 7.43 | 6.45 | 6.65
C#Cc1cccc(Nc2ncnc3cc(OC)c(OCCCCC(=O)Nc4ccc(S(N)(=O)=O)cc4)cc23)c1 | 5.11 | 4.75 | 4.73 | 7.31 | 7.31 | – | –
NS(=O)(=O)c1ccc(NC(=S)Nc2ccc3ncnc(Nc4cccc(C(F)(F)F)c4)c3c2)cc1 | 4.99 | 4.66 | 5.12 | 7.29 | 6.87 | 6.28 | 6.24
COc1cc2ncnc(Nc3cccc(Cl)c3F)c2cc1OCCCCC(=O)Nc1ccc(S(N)(=O)=O)cc1 | 4.98 | 5.25 | 5.16 | 7.46 | 7.74 | – | –
NS(=O)(=O)c1ccc(NC(=S)Nc2ccc3ncnc(Nc4ccc(OCc5cccc(F)c5)c(Cl)c4)c3c2)cc1 | < 4.40 | 4.53 | 4.99 | – | – | – | –
COc1cc2ncnc(Nc3ccc(OCc4cccc(F)c4)c(Cl)c3)c2cc1OCCCCC(=O)Nc1ccc(S(N)(=O)=O)cc1 | 5.10 | 5.11 | 5.25 | 7.78 | 7.64 | – | –

Second part, led by results:

pIC50 (A549) | pIC50 (A-431) | pIC50 (NCI-H1975) | Compound | pIC50 [1] | pIC50 [2] | pIC50 (Carbonic anhydrase 2) | pIC50 (Carbonic anhydrase 9)
4.59 | 4.52 | 5.02 | NS(=O)(=O)c1ccc(NC(=S)Nc2ccc3ncnc(Nc4cccc(F)c4)c3c2)cc1 | – | – | – | –
4.49 | 4.57 | 4.89 | NS(=O)(=O)c1ccc(CCNC(=S)Nc2ccc3ncnc(Nc4ccc(C(F)(F)F)cc4)c3c2)cc1 | – | – | – | –
< 4.40 | 4.82 | 4.40 | NS(=O)(=O)c1ccc(NC(=S)Nc2ccc3ncnc(Nc4cccc(Cl)c4)c3c2)cc1 | – | – | – | –
4.60 | 4.68 | 4.96 | NS(=O)(=O)c1ccc(NC(=S)Nc2ccc3ncnc(Nc4cccc(Br)c4)c3c2)cc1 | – | – | – | –
4.83 | 4.88 | 4.99 | Cc1ccc(Nc2ncnc3ccc(NC(=S)NCCc4ccc(S(N)(=O)=O)cc4)cc23)cc1 | – | – | – | –
5.15 | 4.80 | 4.68 | Cc1cccc(Nc2ncnc3ccc(NC(=S)NCCc4ccc(S(N)(=O)=O)cc4)cc23)c1 | – | – | – | –
< 4.40 | 4.82 | 4.87 | C#Cc1cccc(Nc2ncnc3ccc(NC(=S)Nc4ccc(S(N)(=O)=O)cc4)cc23)c1 | – | – | – | –
5.38 | 4.78 | 4.94 | NS(=O)(=O)c1ccc(CCNC(=S)Nc2ccc3ncnc(Nc4ccc(F)c(Cl)c4)c3c2)cc1 | – | – | – | –
4.61 | 4.42 | 4.41 | CCc1ccc(Nc2ncnc3ccc(NC(=S)Nc4ccc(S(N)(=O)=O)cc4)cc23)cc1 | – | – | – | –
5.27 | 4.68 | 5.03 | NS(=O)(=O)c1ccc(CCNC(=S)Nc2ccc3ncnc(Nc4ccc(F)c(Br)c4)c3c2)cc1 | – | – | – | –
4.52 | 4.67 | 4.40 | NS(=O)(=O)c1ccc(CCNC(=S)Nc2ccc3ncnc(Nc4ccc(Cl)c(C(F)(F)F)c4)c3c2)cc1 | – | – | – | –
5.03 | 4.76 | 4.97 | NS(=O)(=O)c1ccc(CCNC(=S)Nc2ccc3ncnc(Nc4cccc(Br)c4)c3c2)cc1 | – | – | – | –
5.34 | 5.38 | 4.88 | NS(=O)(=O)c1ccc(CCNC(=S)Nc2ccc3ncnc(Nc4cccc(Cl)c4F)c3c2)cc1 | – | – | – | –
< 4.40 | 4.62 | 4.45 | Cc1cccc(Nc2ncnc3ccc(NC(=S)Nc4ccc(S(N)(=O)=O)cc4)cc23)c1 | – | – | – | –
5.55 | 4.40 | 4.40 | Cc1ccc(Nc2ncnc3ccc(NC(=S)Nc4ccc(S(N)(=O)=O)cc4)cc23)cc1 | – | – | – | –
5.41 | 4.90 | 4.90 | C#Cc1cccc(Nc2ncnc3ccc(NC(=S)NCCc4ccc(S(N)(=O)=O)cc4)cc23)c1 | – | – | – | –
5.56 | 4.83 | 4.96 | NS(=O)(=O)c1ccc(CCNC(=S)Nc2ccc3ncnc(Nc4cccc(Cl)c4)c3c2)cc1 | – | – | – | –
5.26 | 5.00 | 4.45 | NS(=O)(=O)c1ccc(CCNC(=S)Nc2ccc3ncnc(Nc4cccc(F)c4)c3c2)cc1 | – | – | – | –
4.78 | 4.40 | 5.03 | CCc1ccc(Nc2ncnc3ccc(NC(=S)NCCc4ccc(S(N)(=O)=O)cc4)cc23)cc1 | – | – | – | –
